Measurements from patent US12252524B2, “GIP/GLP1 co-agonist compounds” (Eli Lilly and Company, priority 2018, dated 2025).
Numbered stars: 1 amine (or outer) side, 2 acyl side, 3 side chain; on linkers, the order of the positions; unused ones are H or OH. Square brackets hold non-standard residues; d marks the D form. Side chains are listed from the residue outwards. Peptide text beside a SMILES is read from it. * marks the point of attachment. C20 diacid = O=C(O)CCCCCCCCCCCCCCCCCCC(=O)*; C18 diacid = O=C(O)CCCCCCCCCCCCCCCCC(=O)*; γGlu = O=C(O)[C@H](CCC(=O)[*:2])N[*:1]; αMeL = CC(C)C[C@](C)(N)C(=O)O; AEEA = NCCOCCOCC(=O)O; Aib = CC(C)(N)C(=O)O

Legend:
human Gcg receptor = target: T1, human Gcg receptor (Homo sapiens, UniProt P47871); test: [125I]-Glucagon binding (SPA), human Gcg receptor; details: read-out: hGLcgR Ki, nM (SEM, n)
T1 construct: expressed in transfected cells; crude membranes
Summary of the method: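 Crude membranes from cells expressing the receptor, prepared by hypotonic lysis in 50 mM Tris HCl pH 7.5 with protease inhibitors, homogenization and differential centrifugation, were used in a WGA-bead SPA. Binding buffer: 25 mM HEPES pH 7.4, 2.5 mM CaCl2, 1 mM MgCl2, bacitracin, Tween-20.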

human GIP receptor = target: T2, human GIP receptor (Homo sapiens, UniProt P48546); test: [125I]-GIP binding (SPA), human GIP receptor; details: read-out: hGIPR Ki, nM (SEM, n)
T2 construct: expressed in transfected cells; crude membranes
T2 sequence (P48546 22-466): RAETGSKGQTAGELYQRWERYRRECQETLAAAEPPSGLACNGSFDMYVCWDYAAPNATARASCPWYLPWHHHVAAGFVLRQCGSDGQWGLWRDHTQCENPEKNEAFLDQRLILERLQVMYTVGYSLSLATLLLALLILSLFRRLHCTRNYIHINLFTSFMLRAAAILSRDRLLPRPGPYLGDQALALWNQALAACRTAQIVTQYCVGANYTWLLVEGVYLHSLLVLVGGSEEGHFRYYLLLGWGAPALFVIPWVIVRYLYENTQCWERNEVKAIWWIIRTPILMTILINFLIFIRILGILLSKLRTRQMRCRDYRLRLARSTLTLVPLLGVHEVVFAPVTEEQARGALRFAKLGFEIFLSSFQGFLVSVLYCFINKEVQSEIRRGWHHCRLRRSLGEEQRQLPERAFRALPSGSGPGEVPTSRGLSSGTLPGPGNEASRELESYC

[1] = target: human GLP-1 receptor (GLP-1R) (Homo sapiens, UniProt P43220); test: cAMP pharmacological functional assay in presence of casein, hGLP-1R; format: cell-based; details: HEK293 cells expressing hGLP-1R, 0.1% Casein, geometric mean; read-out: hGLP1R cAMP Rel EC50 nM (SEM, n)
[2] = target: T3, gastric inhibitory peptide receptor (GIPR) (Homo sapiens, UniProt P48546); test: cAMP pharmacological functional assay in presence of casein, hGIPR; format: cell-based; details: HEK293 cells expressing hGIPR, 0.1% Casein, geometric mean; read-out: hGIPR cAMP Rel EC50 nM (SEM, n)
T3 sequence (P48546 22-466): T2 sequence (P48546 22-466)

human GLP-1R [3] = target: T4, human GLP-1R (Homo sapiens, UniProt P43220); test: [125I]-GLP-1 binding (SPA), human GLP-1 receptor; parameters: expressed in transfected cells; crude membranes; details: read-out: hGLP1R Ki, (nM) (SEM, n)
Summary of the method: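 Frozen cell pellets are lysed on ice in hypotonic Tris buffer, pH 7.5, homogenized, and centrifuged to a membrane pellet resuspended at about 1 to 3 mg/mL. Binding is then measured in HEPES-based buffer at pH 7.4, and curves are fitted to give IC50 and Ki.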

human GLP-1R [4] = target: T4, human GLP-1R; test: GLP-1R HEK293 cell membrane [35S]GTPγS binding assay; format: biochemical; parameters: expressed in transfected cells; host or cells: HEK293 cells expressing human GLP-1R; membranes; details: HEK293 cell membranes expressing human GLP-1R, [35S]GTPγS binding; read-out: hGLP1R GTPgS Rel EC50 nM (SEM, n)
Summary of the method: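 Membranes from HEK293 cells expressing the receptor incubated with peptide and […] [35S]GTPγS in HEPES pH 7.4 buffer with NaCl, MgCl2, saponin and BSA, 30 min at room temperature. Gαs-bound label captured by anti-Gαs antibody/SPA beads and counted; EC50 from four-parameter logistic fit.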

T4 sequence (P43220 24-463): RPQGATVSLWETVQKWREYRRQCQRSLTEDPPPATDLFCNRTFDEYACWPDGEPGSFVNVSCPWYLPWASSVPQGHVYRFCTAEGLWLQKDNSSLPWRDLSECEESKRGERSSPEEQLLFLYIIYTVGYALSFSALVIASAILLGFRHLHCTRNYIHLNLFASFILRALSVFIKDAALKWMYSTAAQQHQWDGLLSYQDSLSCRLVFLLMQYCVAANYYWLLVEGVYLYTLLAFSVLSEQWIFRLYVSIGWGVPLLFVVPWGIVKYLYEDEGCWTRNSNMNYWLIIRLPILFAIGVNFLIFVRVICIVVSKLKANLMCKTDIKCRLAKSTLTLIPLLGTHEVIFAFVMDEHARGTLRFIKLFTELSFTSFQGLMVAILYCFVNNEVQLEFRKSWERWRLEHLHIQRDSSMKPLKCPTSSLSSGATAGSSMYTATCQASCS
Sequence of human GLP-1 receptor (GLP-1R) (P43220 24-463): as above
T1 sequence (P47871 26-477): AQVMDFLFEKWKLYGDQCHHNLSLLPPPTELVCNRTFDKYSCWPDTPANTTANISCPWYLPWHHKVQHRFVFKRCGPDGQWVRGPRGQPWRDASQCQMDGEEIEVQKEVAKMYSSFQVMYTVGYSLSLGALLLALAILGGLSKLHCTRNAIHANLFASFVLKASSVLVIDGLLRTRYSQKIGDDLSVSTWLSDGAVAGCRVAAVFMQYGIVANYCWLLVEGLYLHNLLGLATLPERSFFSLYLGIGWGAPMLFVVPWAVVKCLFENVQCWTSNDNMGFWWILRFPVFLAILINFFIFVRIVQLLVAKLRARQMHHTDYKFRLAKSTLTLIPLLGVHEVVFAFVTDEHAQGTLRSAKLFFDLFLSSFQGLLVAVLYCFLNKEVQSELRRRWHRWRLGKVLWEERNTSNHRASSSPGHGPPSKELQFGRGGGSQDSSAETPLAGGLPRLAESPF

## CC[C@H](C)[C@H](NC(=O)[C@H](CC(C)C)NC(=O)[C@H](Cc1ccc(O)cc1)NC(=O)[C@H](CCC(=O)O)NC(=O)[C@@H](NC(=O)[C@H](Cc1ccccc1)NC(=O)[C@H](C)NC(=O)C(C)(C)NC(=O)[C@H](CCC(N)=O)NC(=O)[C@H](C)NC(=O)[C@H](CCCCNC(=O)COCCOCCNC(=O)COCCOCCNC(=O)CC[C@H](NC(=O)CCCCCCCCCCCCCCCCCCC(=O)O)C(=O)O)NC(=O)[C@H](CCCCN)NC(=O)[C@H](CC(=O)O)NC(=O)[C@H](CC(C)C)NC(=O)[C@](C)(CC(C)C)NC(=O)[C@@H](NC(=O)[C@H](CO)NC(=O)[C@H](Cc1ccc(O)cc1)NC(=O)[C@H](CC(=O)O)NC(=O)[C@H](CO)NC(=O)[C@@H](NC(=O)[C@H](Cc1ccccc1)NC(=O)[C@@H](NC(=O)CNC(=O)[C@H](CCC(=O)O)NC(=O)C(C)(C)NC(=O)[C@@H](N)Cc1ccc(O)cc1)[C@@H](C)O)[C@@H](C)O)[C@@H](C)CC)[C@@H](C)CC)C(=O)N[C@@H](C)C(=O)NCC(=O)NCC(=O)N1CCC[C@H]1C(=O)N[C@@H](CO)C(=O)N[C@@H](CO)C(=O)NCC(=O)N[C@@H](C)C(=O)N1CCC[C@H]1C(=O)N1CCC[C@H]1C(=O)N1CCC[C@H]1C(=O)N[C@@H](CO)C(N)=O [Example 324] (H-Y[Aib]EGTFTSDYSI[αMeL]LDKK([AEEA-AEEA-γGlu-C20 diacid])AQ[Aib]AFIEYLIAGGPSSGAPPPS-NH2)
Human Gcg receptor
  Ki: 449 nM
Human GIP receptor
  Ki: 0.0278 nM
[1]
  EC50: 0.0926 nM
[2]
  EC50: 0.0374 nM
Human GLP-1R [3]
  Ki: 0.609 nM
Human GLP-1R [4]
  EC50: 0.475 nM

## CC[C@H](C)[C@H](NC(=O)[C@H](CC(C)C)NC(=O)[C@H](Cc1ccc(O)cc1)NC(=O)[C@H](CCC(=O)O)NC(=O)[C@@H](NC(=O)[C@H](Cc1ccccc1)NC(=O)[C@H](C)NC(=O)C(C)(C)NC(=O)[C@H](CCC(N)=O)NC(=O)[C@H](C)NC(=O)[C@H](CCCCNC(=O)COCCOCCNC(=O)COCCOCCNC(=O)CC[C@H](NC(=O)CCCCCCCCCCCCCCCCCCC(=O)O)C(=O)O)NC(=O)[C@H](CCCCN)NC(=O)[C@H](CC(=O)O)NC(=O)[C@H](CC(C)C)NC(=O)[C@H](CC(C)C)NC(=O)[C@@H](NC(=O)[C@H](CO)NC(=O)[C@H](Cc1ccc(O)cc1)NC(=O)[C@H](CC(=O)O)NC(=O)[C@H](CO)NC(=O)[C@@H](NC(=O)[C@](C)(Cc1ccccc1F)NC(=O)[C@@H](NC(=O)CNC(=O)[C@H](CCC(=O)O)NC(=O)C(C)(C)NC(=O)[C@@H](N)Cc1ccc(O)cc1)[C@@H](C)O)[C@@H](C)O)[C@@H](C)CC)[C@@H](C)CC)C(=O)N[C@@H](CCC(=O)O)C(=O)NCC(=O)NCC(=O)N1CCC[C@H]1C(=O)N[C@@H](CO)C(=O)N[C@@H](CO)C(=O)NCC(=O)N[C@@H](C)C(=O)N1CCC[C@H]1C(=O)N1CCC[C@H]1C(=O)N1CCC[C@H]1C(=O)N[C@@H](CO)C(N)=O [Example 325]
Human Gcg receptor
  Ki: 13 nM
Human GIP receptor
  Ki: 0.0209 nM
[1]
  EC50: 0.0586 nM
[2]
  EC50: 0.0301 nM
Human GLP-1R [3]
  Ki: 0.475 nM
Human GLP-1R [4]
  EC50: 0.414 nM

## CC[C@H](C)[C@H](NC(=O)[C@H](CC(C)C)NC(=O)[C@H](Cc1ccc(O)cc1)NC(=O)[C@H](CCC(=O)O)NC(=O)[C@@H](NC(=O)[C@H](Cc1ccccc1)NC(=O)[C@H](C)NC(=O)C(C)(C)NC(=O)[C@H](CCC(N)=O)NC(=O)[C@H](C)NC(=O)[C@H](CCCCNC(=O)COCCOCCNC(=O)COCCOCCNC(=O)CC[C@H](NC(=O)CCCCCCCCCCCCCCCCCCC(=O)O)C(=O)O)NC(=O)[C@H](CCCCN)NC(=O)[C@H](CC(=O)O)NC(=O)[C@H](CC(C)C)NC(=O)[C@H](CC(C)C)NC(=O)[C@@H](NC(=O)[C@H](CO)NC(=O)[C@H](Cc1ccc(O)cc1)NC(=O)[C@H](CC(=O)O)NC(=O)[C@H](CO)NC(=O)[C@@H](NC(=O)[C@H](Cc1ccccc1)NC(=O)[C@@H](NC(=O)CNC(=O)[C@H](CCC(=O)O)NC(=O)C(C)(C)NC(=O)[C@@H](N)Cc1ccccc1)[C@@H](C)O)[C@@H](C)O)[C@@H](C)CC)[C@@H](C)CC)C(=O)N[C@@H](CCC(=O)O)C(=O)NCC(=O)NCC(=O)N1CCC[C@H]1C(=O)N[C@@H](CO)C(=O)N[C@@H](CO)C(=O)NCC(=O)N[C@@H](C)C(=O)N1CCC[C@H]1C(=O)N1CCC[C@H]1C(=O)N1CCC[C@H]1C(=O)N[C@@H](CO)C(N)=O [Example 326] (H-F[Aib]EGTFTSDYSILLDKK([AEEA-AEEA-γGlu-C20 diacid])AQ[Aib]AFIEYLIEGGPSSGAPPPS-NH2)
Human Gcg receptor
  Ki: 207 nM
Human GIP receptor
  Ki: 0.251 nM
[1]
  EC50: 0.0369 nM
[2]
  EC50: 0.0754 nM
Human GLP-1R [3]
  Ki: 2.92 nM
Human GLP-1R [4]
  EC50: 0.663 nM

## CC[C@H](C)[C@H](NC(=O)[C@H](CC(C)C)NC(=O)[C@H](Cc1ccc(O)cc1)NC(=O)[C@H](CCC(=O)O)NC(=O)[C@@H](NC(=O)[C@H](Cc1ccccc1)NC(=O)[C@H](C)NC(=O)C(C)(C)NC(=O)[C@H](CCC(N)=O)NC(=O)[C@H](C)NC(=O)[C@H](CCCCNC(=O)COCCOCCNC(=O)COCCOCCNC(=O)CC[C@H](NC(=O)CCCCCCCCCCCCCCCCC(=O)O)C(=O)O)NC(=O)[C@H](CCCCN)NC(=O)[C@H](CC(=O)O)NC(=O)[C@H](CC(C)C)NC(=O)[C@](C)(CC(C)C)NC(=O)[C@@H](NC(=O)[C@H](CO)NC(=O)[C@H](Cc1ccc(O)cc1)NC(=O)[C@H](CC(=O)O)NC(=O)[C@H](CO)NC(=O)[C@@H](NC(=O)[C@H](Cc1ccccc1)NC(=O)[C@@H](NC(=O)CNC(=O)[C@H](CCC(=O)O)NC(=O)C(C)(C)NC(=O)[C@@H](N)Cc1ccccc1)[C@@H](C)O)[C@@H](C)O)[C@@H](C)CC)[C@@H](C)CC)C(=O)N[C@@H](CCC(=O)O)C(=O)N[C@@H](C)C(=O)NCC(=O)N1CCC[C@H]1C(=O)N[C@@H](CO)C(=O)N[C@@H](CO)C(=O)NCC(=O)N[C@@H](C)C(=O)N1CCC[C@H]1C(=O)N1CCC[C@H]1C(=O)N1CCC[C@H]1C(=O)N[C@@H](CO)C(N)=O [Example 328] (H-F[Aib]EGTFTSDYSI[αMeL]LDKK([AEEA-AEEA-γGlu-C18 diacid])AQ[Aib]AFIEYLIEAGPSSGAPPPS-NH2)
Human Gcg receptor
  Ki: > 1450 nM
Human GIP receptor
  Ki: 0.136 nM
[1]
  EC50: 0.117 nM
[2]
  EC50: 0.0965 nM
Human GLP-1R [3]
  Ki: 3.98 nM
Human GLP-1R [4]
  EC50: 0.481 nM
